Results reported in US10570097B2, “Antimicrobial imidazolium compounds” (AGENCY FOR SCIENCE, TECHNOLOGY AND RESEARCH, priority 2014, dated 2020).

Legend:
[1] = test system: rat red blood cells (RBCs); assay: Hemolysis; assay type: cell-based; conditions: lowest concentration that induces 10% or more hemolysis; rat RBCs, 1 h, 37° C.; maximum tested 100,000 ppm
Experimental: Before these materials can be used in systemic applications, selectivity of these materials for microbial cells over mammalian cells should also be considered. Such selectivity is often determined by observation of hemolysis. Hemolysis was performed in the following manner, fresh rat red blood cells (RBCs) were diluted with PBS buffer to give an RBC stock suspension (4 vol % blood cells). A 100 μL aliquot of RBC stock was added to a 96-well plate containing […] oligomer compound stock solutions of various concentrations (serial 2-fold dilution in PBS). After 1 h incubation at 37° C., The contents of each well was pipetted into a microcentrifuge tube and then centrifuged at 4000 rpm for 5 min. Hemolytic activity was determined as a function of hemoglobin release by measuring OD576 of […] of the supernatant. A control solution that contained only PBS was used as a reference for 0% hemolysis. 100% hemolysis was measured by adding 0.5% Triton-X to the RBCs. [formula] The selectivity of the materials was also further assessed, by calculating the selectivity indices (SI), a measure and a comparison of safety and efficacies of each oligomer compound. […] Herein, the more stringent control of HC10 value was chosen over the HC50 value often reported in literature.

[2] = test system: E. coli; assay: Minimum inhibitory concentration by microdilution assay; assay type: cell-based, Escherichia coli (ATCC 25922); conditions: E. coli, 37° C., 24 h
Experimental: (§1) Staphylococcus aureus (ATCC 6538, gram-positive), Escherichia coli (ATCC 25922, gram-negative), Pseudomonas aeruginosa (gram-negative), and Candida albicans (ATCC 10231, yeast) were used as representative microorganisms to challenge the antimicrobial functions of the imidazolium salts. All bacteria and yeast were stored frozen at −80° C., and were grown overnight at 37° C. in Tryptic Soy broth (TSB) prior to experiments. Yeast was grown overnight at 22° C. in Yeast Mold (YM) broth. Subsamples of these cultures were grown for 3 h further and diluted to give an optical density value of 0.07 at 600 nm, corresponding to 3×10^8 CFU mL^−1 (MacFarland's Standard).
(§2) The oligomer compounds were dissolved in PBS at a concentration of 1 mg mL^1 and the minimal inhibitory concentrations (MICs) were determined by microdilution assay. Typically, a 100 μL microbial solutions (containing 3×10^8 cells mL^−1) were added to 100 μL of PBS containing the test imidazolium salts (normally ranging from […] in serial two-fold dilutions) in each well of the 96-well microtiter plate. The plates were incubated at 37° C. for 24 h with shaking at 300 rpm, with monitoring at the 2, 4, 6, 8, and 24 h time points. […] Broth and PBS solution containing microbial cells alone were used as negative controls, and experiments were run in triplicates.

[3] = test system: C. Albicans; assay: as above; assay type: cell-based, Candida albicans (ATCC 10231); conditions: 24 h
Experimental: as §1, §2

[4] = test system: S. aureus; assay: Minimum biocidal concentration / killing efficiency (24 h); assay type: cell-based, Staphylococcus aureus
Experimental: (§3) To determine the minimum bacteriocidal concentration, the microbes were inoculated and prepared according to the procedure for MIC determination. […] The bacterial samples were taken out of each well after the aforementioned period, and subjected to a series of 10-fold dilutions. 20 uL of the diluted sample was then streaked across an agar plate, before incubation of the plate at 37° C. for 24 h. Colony forming units (CFU) were counted after overnight incubation, and the results were calculated according to the formula: [formula]

[5] = Gelling properties in solvents (tube inversion test); assay type: physicochemical
Experimental: Gels were prepared by weighing the imidazolium oligomer compounds directly into 4 mL glass vials and subsequently adding a known weight or volume of the solvent. The vials containing both the imidazolium and the solvent were either vortexed or sonicated to ensure that the imidazolium was dissolved and dispersed thoroughly before being placed in a 4° C. fridge overnight. The tube inversion test method was used to examine gel formation in different solvents.

[6] = test system: S. aureus; assay: Minimum inhibitory concentration by microdilution assay; assay type: cell-based, Staphylococcus aureus (ATCC 6538); conditions: 37° C., 24 h
Experimental: as §1, §2

[7] = Critical micellar concentration (pyrene fluorescent probe); assay type: physicochemical; conditions: FIG. 4, deionized water
Experimental: The CMC values of the oligomer compounds were determined in both deionised (DI) water and PBS, using a LS50B luminescence spectrometer (Perkin Elmer, United States) and employing pyrene as a fluorescent probe. A known weight of the oligomer compound was dissolved in either 2 mL of DI water or PBS in a 4 mL glass vial and serial dilutions were effected. 10 μL of pyrene stock solution in acetone (6.16×10^-5 M) was added to each vial containing 1 mL of a known concentration of the oligomer compound, and the acetone was then evaporated at room temperature. The solution was allowed to equilibrate overnight and the final concentration of pyrene in each vial was 6.16×10^-7 M. The excitation spectra of the solutions were scanned from 300 to 360 nm with an emission wavelength of 395 nm, and both the excitation and emission bandwidths were set at 2.5 nm. The intensity ratios ([…]/[…]) were plotted against polymer concentration. The CMC value was given by the intersection of the tangent to the curve at the inflection and the tangent of the points at low polymer concentrations.

[8] = test system: E. coli; assay: Time kill kinetics; assay type: cell-based, Escherichia coli; conditions: two minutes; for % kill / Log reduction: E. coli, 4MIC
Experimental: Time kill studies of the soligome compounds against E. coli were also studied. The experimental setup for time kill kinetics was similar to the set up for MBC determination. The microbes were treated with oligomer compounds at 4MIC concentration, and samples were taken out of each well at 2 minutes. 500 μl of cell suspension was removed, rescued by a series of 10-fold dilutions with growth medium, and kept on ice until plating. For plating, 50 μl to 200 μl of the diluted samples was spread on growth medium agar plates and colonies were counted after overnight incubation at 37° C.

[9] = test system: 4 microbes (S. aureus, E. coli, P. aeruginosa, C. Albicans); assay: MIC over the 4 microbes tested (geometric mean); assay type: cell-based; conditions: geometric mean of the MICs of the 4 microbes
Experimental: Staphylococcus aureus (ATCC 6538, gram-positive), Escherichia coli (ATCC 25922, gram-negative), Pseudomonas aeruginosa (gram-negative), and Candida albicans (ATCC 10231, yeast) were used as representative microorganisms to challenge the antimicrobial functions of the imidazolium salts. All bacteria and yeast were stored frozen at −80° C., and were grown overnight at 37° C. in Tryptic Soy broth (TSB) prior to experiments. Yeast was grown overnight at 22° C. in Yeast Mold (YM) broth. […] Typically, a 100 μL microbial solutions (containing 3×10^8 cells mL^−1) were added to 100 μL of PBS containing the test imidazolium salts (normally ranging from […] in serial two-fold dilutions) in each well of the 96-well microtiter plate. The plates were incubated at 37° C. for 24 h with shaking at 300 rpm, with monitoring at the 2, 4, 6, 8, and 24 h time points. […] Broth and PBS solution containing microbial cells alone were used as negative controls, and experiments were run in triplicates. The selectivity of the materials was also further assessed, by calculating the selectivity indices (SI), a measure and a comparison of safety and efficacies of each oligomer compound. […] Herein, the more stringent control of HC10 value was chosen over the HC50 value often reported in literature.

[10] = test system: E. coli; assay: Minimum biocidal concentration / killing efficiency (24 h); assay type: cell-based, Escherichia coli
Experimental: as §3

[11] = test system: P. aeruginosa; assay: Minimum inhibitory concentration by microdilution assay; assay type: cell-based, Pseudomonas aeruginosa; conditions: 37° C., 24 h
Experimental: as §1, §2

| SMILES | HC10 [1] | MIC E. coli [2] | MIC C.A. [3] | % killing ([4]; 0.5 MIC) | Log reduction ([4]; 0.5 MIC) | % killing ([4]; 2 MIC) | Log reduction ([4]; 2 MIC) | % killing ([4]; MIC) | Log reduction ([4]; MIC) | State in solvent ([5]; Acetone) | State in solvent ([5]; Acetonitrile) | Concentration to form gel ([5]; EtOH) | State in solvent ([5]; EtOH) | State in solvent ([5]; Ethylene glycol) | MIC S.A. [6] | sharp point of inflection indicating the critical micellar concentrations [7] | % kill [8] | Log reduction [8] | MIC GM [9] | MIC P.A. [11] | further results |
| --- | --- | --- | --- | --- | --- | --- | --- | --- | --- | --- | --- | --- | --- | --- | --- | --- | --- | --- | --- | --- | --- |
| CCCCCCCC[n+]1ccn(Cc2ccc(C[n+]3ccn(Cc4ccc(C[n+]5ccn(Cc6ccccc6Cn6cc[n+](Cc7ccc(Cn8cc[n+](Cc9ccc(Cn%10cc[n+](CCCCCCCC)c%10)cc9)c8)cc7)c6)c5)cc4)c3)cc2)c1.[Br-].[Br-].[Cl-].[Cl-].[Cl-].[Cl-] [Compound 2] | 12500 ppm | 8 µg/mL | 16 µg/mL | 98.03% | 1.71 ± 0.032 | >99.999% | 13.38 ± 0.337 | >99.999% | 11.82 ± 0.067 | Insoluble | Insoluble | (11 wt %) | Gel | Solution | 4 µg/mL | not observed | >99.9% | 3.11 | 9.51 µg/mL | 16 µg/mL | State in solvent ([5]; Glycerol): Solution; Concentration to form gel ([5]; nBuOH): (11.3 wt %); State in solvent ([5]; nBuOH): Gel; Concentration to form gel ([5]; nPrOH): (9.8 wt %); State in solvent ([5]; nPrOH): Gel; % killing ([10]; 0.5 MIC): 99.779%; Log reduction ([10]; 0.5 MIC): 2.67 ± 0.128; % killing ([10]; 2 MIC): >99.999%; Log reduction ([10]; 2 MIC): 7.19 ± 0.149; % killing ([10]; MIC): >99.999%; Log reduction ([10]; MIC): 7.11 ± 0.123 |
| c1ccc(C[n+]2ccn(Cc3ccc(C[n+]4ccn(Cc5ccc(C[n+]6ccn(Cc7ccccc7Cn7cc[n+](Cc8ccc(Cn9cc[n+](Cc%10ccc(Cn%11cc[n+](Cc%12ccccc%12)c%11)cc%10)c9)cc8)c7)c6)cc5)c4)cc3)c2)cc1 [IBN-1, reference compound] | >100000 ppm | 4 µg/mL | 31 µg/mL |  |  |  |  |  |  |  |  |  |  |  | 3 µg/mL | not observed | 83.33% | 0.79 | 10.36 µg/mL | 31 µg/mL | Gel formation ([5]; any of the solvents): not able to form gels; killing within two minutes ([8]; E. coli (3×10^8 cells mL^−1), 32 ppm concentration of oligomer compounds): 83% |
| CCCCCC[n+]1ccn(Cc2ccc(C[n+]3ccn(Cc4ccc(C[n+]5ccn(Cc6ccccc6Cn6cc[n+](Cc7ccc(Cn8cc[n+](Cc9ccc(Cn%10cc[n+](CCCCCC)c%10)cc9)c8)cc7)c6)c5)cc4)c3)cc2)c1.[Br-].[Br-].[Cl-].[Cl-].[Cl-].[Cl-] [Compound 1] | >100000 ppm | 8 µg/mL | 16 µg/mL | 99.975% | 3.69 ± 0.335 | >99.999% | 7.28 ± 0.036 | 99.999% | 5.35 ± 0.094 | Insoluble | Insoluble | (11 wt %) | Gel | Solution | 4 µg/mL | not observed | 99.8% | 2.85 | 8 µg/mL | 8 µg/mL | State in solvent ([5]; Glycerol): Solution; Concentration to form gel ([5]; nBuOH): (9.2 wt %); State in solvent ([5]; nBuOH): Gel; Concentration to form gel ([5]; nPrOH): (7.8 wt %); State in solvent ([5]; nPrOH): Gel; % killing ([10]; 0.5 MIC): 97.692%; Log reduction ([10]; 0.5 MIC): 1.48 ± 0.212; % killing ([10]; 2 MIC): >99.999%; Log reduction ([10]; 2 MIC): 8.40 ± 0.403; % killing ([10]; MIC): >99.999%; Log reduction ([10]; MIC): 7.53 ± 0.173 |
